According to the supplement of paper PMC11208160:

Assay: recombinant barcode read abundance after kanamycin selection (control-corrected) (log10(CPM+1)); higher = more efficient recombination; sequences stand for … in AGTGCAGAGAAAATCGGCCAGTTTTCTCTGCCTGCAGTCCGCATGCCGT…ATTTATGCAGCGGACTGCCTTTCTCCCAAAGTGATAAACCGGACAGTATCATGGACCGGTTTTCCCGGTAATCCGTATTTGCAAGGTTGGTTTCACT; site = the 11-nt target
Procedure: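 Same pooled E. coli target screen (IS621 bridge recombinase, kanamycin selection, control-corrected CPM, mean of 2 biological replicates). Here the two core-binding nucleotides of the LTG and RTG of the bridge RNA target-binding loop are mutated. Target and donor CT cores are held constant, and the other 9 guide positions match the target. The target is read from the library oligo sequence. Molecule = full bridge RNA written as DNA: nt 1-80 from the library oligo, rest WT scaffold.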

Sequence	recombinant barcode read abundance (log10)
AGGAGGTCTTGGGTTCTAACCTGTTGCCTGA [AGGAGGTCTAG_LTGcore_CT_RTGcore_TC] (site AGGAGGTCTAG) (LTG core: CT, RTG core: TC)	0.643
AGGAGGTCTTGGGTTCTAACCTGTTGCCTTC [AGGAGGTCTAG_LTGcore_CT_RTGcore_GA] (site AGGAGGTCTAG) (LTG core: CT, RTG core: GA)	0.107
AGGAGGTGCTGGGTTCTAACCTGTTGCCTAG [AGGAGGTCTAG_LTGcore_GC_RTGcore_CT] (site AGGAGGTCTAG) (LTG core: GC, RTG core: CT)	0.292
AGGAGGTGCTGGGTTCTAACCTGTTGCCTGC [AGGAGGTCTAG_LTGcore_GC_RTGcore_GC] (site AGGAGGTCTAG) (LTG core: GC, RTG core: GC)	0.911
AGGAGGTTATGGGTTCTAACCTGTTGCCTTA [AGGAGGTCTAG_LTGcore_TA_RTGcore_TA] (site AGGAGGTCTAG) (LTG core: TA, RTG core: TA)	0.209
AGGAGGTTCTGGGTTCTAACCTGTTGCCTAG [AGGAGGTCTAG_LTGcore_TC_RTGcore_CT] (site AGGAGGTCTAG) (LTG core: TC, RTG core: CT)	0.0562
AGGAGGTTTTGGGTTCTAACCTGTTGCCTAA [AGGAGGTCTAG_LTGcore_TT_RTGcore_TT] (site AGGAGGTCTAG) (LTG core: TT, RTG core: TT)	0.218
AGGCCTCATTGGGTTCTAACCTGTTGCCTAT [AGGCCTCCTAG_LTGcore_AT_RTGcore_AT] (site AGGCCTCCTAG) (LTG core: AT, RTG core: AT)	0.0616
AGGCCTCCGTGGGTTCTAACCTGTTGCCTAG [AGGCCTCCTAG_LTGcore_CG_RTGcore_CT] (site AGGCCTCCTAG) (LTG core: CG, RTG core: CT)	0.0631
AGGCCTCCGTGGGTTCTAACCTGTTGCCTCG [AGGCCTCCTAG_LTGcore_CG_RTGcore_CG] (site AGGCCTCCTAG) (LTG core: CG, RTG core: CG)	0.0742
AGGCCTCCTTGGGTTCTAACCTGTTGCCTTA [AGGCCTCCTAG_LTGcore_CT_RTGcore_TA] (site AGGCCTCCTAG) (LTG core: CT, RTG core: TA)	0.635
AGGCCTCGCTGGGTTCTAACCTGTTGCCTAG [AGGCCTCCTAG_LTGcore_GC_RTGcore_CT] (site AGGCCTCCTAG) (LTG core: GC, RTG core: CT)	0.224
AGGCCTCGGTGGGTTCTAACCTGTTGCCTAG [AGGCCTCCTAG_LTGcore_GG_RTGcore_CT] (site AGGCCTCCTAG) (LTG core: GG, RTG core: CT)	1.04
AGGCCTCTATGGGTTCTAACCTGTTGCCTTA [AGGCCTCCTAG_LTGcore_TA_RTGcore_TA] (site AGGCCTCCTAG) (LTG core: TA, RTG core: TA)	0.0149
AGGCCTCTGTGGGTTCTAACCTGTTGCCTCA [AGGCCTCCTAG_LTGcore_TG_RTGcore_TG] (site AGGCCTCCTAG) (LTG core: TG, RTG core: TG)	0.186
AGGCGGGAATGGGTTCTAACCTGTTGCGGTT [AGGCGGGCTCC_LTGcore_AA_RTGcore_AA] (site AGGCGGGCTCC) (LTG core: AA, RTG core: AA)	0.154
AGGCGGGCCTGGGTTCTAACCTGTTGCGGAG [AGGCGGGCTCC_LTGcore_CC_RTGcore_CT] (site AGGCGGGCTCC) (LTG core: CC, RTG core: CT)	1.48
AGGCGGGCGTGGGTTCTAACCTGTTGCGGAG [AGGCGGGCTCC_LTGcore_CG_RTGcore_CT] (site AGGCGGGCTCC) (LTG core: CG, RTG core: CT)	2.17
AGGCGGGCTTGGGTTCTAACCTGTTGCGGAG [AGGCGGGCTCC_LTGcore_CT_RTGcore_CT] (site AGGCGGGCTCC) (LTG core: CT, RTG core: CT)	1.66
AGGCGGGGCTGGGTTCTAACCTGTTGCGGGC [AGGCGGGCTCC_LTGcore_GC_RTGcore_GC] (site AGGCGGGCTCC) (LTG core: GC, RTG core: GC)	0.0608
AGGCGGGTGTGGGTTCTAACCTGTTGCGGAG [AGGCGGGCTCC_LTGcore_TG_RTGcore_CT] (site AGGCGGGCTCC) (LTG core: TG, RTG core: CT)	0.159

Sequence	recombinant barcode read abundance (log10)
AGGCGGTAGTGGGTTCTAACCTGTTGCTTAG [AGGCGGTCTAA_LTGcore_AG_RTGcore_CT] (site AGGCGGTCTAA) (LTG core: AG, RTG core: CT)	0.187
AGGCGGTAGTGGGTTCTAACCTGTTGCTTCT [AGGCGGTCTAA_LTGcore_AG_RTGcore_AG] (site AGGCGGTCTAA) (LTG core: AG, RTG core: AG)	0.197
AGGCGGTCTTGGGTTCTAACCTGTTGCTTAG [AGGCGGTCTAA_LTGcore_CT_RTGcore_CT] (site AGGCGGTCTAA) (LTG core: CT, RTG core: CT)	2.29
AGGCGGTCTTGGGTTCTAACCTGTTGCTTAT [AGGCGGTCTAA_LTGcore_CT_RTGcore_AT] (site AGGCGGTCTAA) (LTG core: CT, RTG core: AT)	0.144
AGGCGGTCTTGGGTTCTAACCTGTTGCTTCT [AGGCGGTCTAA_LTGcore_CT_RTGcore_AG] (site AGGCGGTCTAA) (LTG core: CT, RTG core: AG)	0.284
AGGCGGTCTTGGGTTCTAACCTGTTGCTTTC [AGGCGGTCTAA_LTGcore_CT_RTGcore_GA] (site AGGCGGTCTAA) (LTG core: CT, RTG core: GA)	0.389
AGGCGGTCTTGGGTTCTAACCTGTTGCTTTG [AGGCGGTCTAA_LTGcore_CT_RTGcore_CA] (site AGGCGGTCTAA) (LTG core: CT, RTG core: CA)	0.0581
AGGCGGTGCTGGGTTCTAACCTGTTGCTTGC [AGGCGGTCTAA_LTGcore_GC_RTGcore_GC] (site AGGCGGTCTAA) (LTG core: GC, RTG core: GC)	0.104
AGGCGGTGGTGGGTTCTAACCTGTTGCTTAG [AGGCGGTCTAA_LTGcore_GG_RTGcore_CT] (site AGGCGGTCTAA) (LTG core: GG, RTG core: CT)	0.074
AGGCGGTGGTGGGTTCTAACCTGTTGCTTCC [AGGCGGTCTAA_LTGcore_GG_RTGcore_GG] (site AGGCGGTCTAA) (LTG core: GG, RTG core: GG)	0.0144
AGGCGGTTGTGGGTTCTAACCTGTTGCTTCA [AGGCGGTCTAA_LTGcore_TG_RTGcore_TG] (site AGGCGGTCTAA) (LTG core: TG, RTG core: TG)	0.0951
AGTCTTAAATGGGTTCTAACCTGTTGCCATT [AGTCTTACTTG_LTGcore_AA_RTGcore_AA] (site AGTCTTACTTG) (LTG core: AA, RTG core: AA)	0.0761
AGTCTTACATGGGTTCTAACCTGTTGCCATG [AGTCTTACTTG_LTGcore_CA_RTGcore_CA] (site AGTCTTACTTG) (LTG core: CA, RTG core: CA)	0.21
AGTCTTACGTGGGTTCTAACCTGTTGCCACG [AGTCTTACTTG_LTGcore_CG_RTGcore_CG] (site AGTCTTACTTG) (LTG core: CG, RTG core: CG)	0.213
AGTCTTACTTGGGTTCTAACCTGTTGCCAAG [AGTCTTACTTG_LTGcore_CT_RTGcore_CT] (site AGTCTTACTTG) (LTG core: CT, RTG core: CT)	0.0171
AGTCTTACTTGGGTTCTAACCTGTTGCCAAT [AGTCTTACTTG_LTGcore_CT_RTGcore_AT] (site AGTCTTACTTG) (LTG core: CT, RTG core: AT)	0.144
AGTCTTACTTGGGTTCTAACCTGTTGCCACC [AGTCTTACTTG_LTGcore_CT_RTGcore_GG] (site AGTCTTACTTG) (LTG core: CT, RTG core: GG)	0.0199
AGTCTTACTTGGGTTCTAACCTGTTGCCAGA [AGTCTTACTTG_LTGcore_CT_RTGcore_TC] (site AGTCTTACTTG) (LTG core: CT, RTG core: TC)	0.0445
AGTCTTACTTGGGTTCTAACCTGTTGCCATA [AGTCTTACTTG_LTGcore_CT_RTGcore_TA] (site AGTCTTACTTG) (LTG core: CT, RTG core: TA)	0.136
AGTCTTACTTGGGTTCTAACCTGTTGCCATC [AGTCTTACTTG_LTGcore_CT_RTGcore_GA] (site AGTCTTACTTG) (LTG core: CT, RTG core: GA)	0.155
